Several values for one entry are separate records, joined by “and”; a condition that tells them apart may be missing. Equal entries are not always repeated.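 These data come from cells grown in 96-well plates and exposed to compound for 48 hours at five concentrations. Here, GI50 denotes the concentration required for 50% inhibition of growth. TGI is the concentration that stops growth completely.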
Tests used:
Test in all cases: NCI anticancer screen, dose series, 48 h
[1] = system: HCC-2998 colon
[2] = system: T-47D breast
[3] = system: HCT-116 colon
[4] = system: SW-620 colon
[5] = system: HCT-15 colon
[6] = system: UACC-62 melanoma
[7] = system: PC-3 prostate
[8] = system: K-562 leukemia
[9] = system: SF-268 CNS
[10] = system: HT29 colon

Compound	GI50 [1]	TGI [1]	GI50 [2] [µM]	TGI [2]	GI50 [3] [µM]	TGI [3]	GI50 [4]	TGI [4]	GI50 [5] [µM]	TGI [5]	GI50 [6] [µM]	TGI [6]	GI50 [7] [µM]	TGI [7]	GI50 [8]	TGI [8]	GI50 [9] [µM]	TGI [9]	GI50 [10] [µM]	TGI [10]
Cc1cccc2c1ccc1c3occ(C)c3c(=O)oc21	> 100 µM	> 100 µM	9.65	> 100 µM	> 100	> 100 µM	> 100 µM	> 100 µM	> 100	> 100 µM	> 100	> 100 µM	> 100	> 100 µM	> 100 µM	> 100 µM	> 100	> 100 µM	> 100	> 100 µM
COc1ccc(CCN2COc3ccc4ccc(=O)oc4c3C2)cc1OC	–	> 100 µM	–	> 100 µM	–	> 100 µM	–	69 µM	–	> 100 µM	–	> 100 µM	–	> 100 µM	–	> 100 µM	–	> 100 µM	–	> 100 µM
CS(=O)(=O)c1ccc(-c2[nH]c3ccc(F)cc3c2/C=N/NC(N)=S)cc1	2.95 µM	14.7 µM	12.3	85 µM	0.437	> 100 µM	0.575 µM	> 100 µM	0.611	> 100 µM	0.531	> 100 µM	0.51	26.8 µM	0.532 µM	41.2 µM	2.42	> 100 µM	0.558	15.2 µM
CC#CC(=O)N[C@H]1CCCN(c2c(F)cc(C(N)=O)c3[nH]c(C)c(C)c23)C1	16.6 µM	30.7 µM	13.6	44.3 µM	16	31.2 µM	19.8 µM	39 µM	15.9	32.9 µM	14.4	28.5 µM	21.5	62.2 µM	26.8 µM	> 100 µM	17.4	45.1 µM	25	72.3 µM
CN1CCN(CCCOc2ccc3nc(Nc4ccc(C(F)(F)F)c(Cl)c4)ccc3c2)CC1	1.72 µM	3.26 µM	1.62	4.54 µM	1.46	2.94 µM	1.71 µM	3.33 µM	1.14	2.62 µM	1.83	3.88 µM	1.68	3.56 µM	0.595 µM	2.07 µM	1.66	3.43 µM	0.493	1.87 µM
O=C1CCCC(=O)C1C(=O)c1ccc(C(F)(F)F)cc1[N+](=O)[O-]	> 100 µM	> 100 µM	> 100	> 100 µM	> 100	> 100 µM	> 100 µM	> 100 µM	> 100	> 100 µM	> 100	> 100 µM	> 100	> 100 µM	> 100 µM	> 100 µM	> 100	> 100 µM	> 100	> 100 µM
COCO[C@@H]1CC2C=Nc3cc(OCc4ccccc4)c(OC)cc3C(=O)N2C1 (some centres not stated)	0.519 µM	2.63 µM	0.154	–	0.66	26 µM	0.482 µM	8.61 µM	0.844	6.56 µM	0.463	1.03 µM	1.09	36.9 µM	0.45 µM	> 100 µM	0.646	9.31 µM	0.4	> 100 µM
CNc1ccc(C(=O)CC(O)CCC(C)C2OC(=O)CC(O)CC(=O)CC(O)CC(O)CC(O)CC(O)CC3(O)CC(O)C(C(=O)NCCc4ccccn4)C(CC(OC4OC(C)C(O)C(N)C4O)/C=C/C=C/C=C/C=C\C=C/C=C/C=C/C2C)O3)cc1 (configuration not stated)	1.59 µM	4.88 µM	1.26	> 50 µM	0.741	> 50 µM	> 41.5 µM	> 50 µM	4.75	> 50 µM	1.54	> 34.2 µM	0.336	> 11.6 µM	2.43 µM	> 20.5 µM	0.141	0.439 µM	2.65	> 50 µM
[O]=[W](=[O])([OH])[OH]	> 100 µM	> 100 µM	> 100	> 100 µM	> 100	> 100 µM	> 100 µM	> 100 µM	> 100	> 100 µM	> 100	> 100 µM	> 100	> 100 µM	> 100 µM	> 100 µM	> 100	> 100 µM	> 100	> 100 µM
CN1CCN(CCCN2c3ccccc3Sc3ccc(C(F)(F)F)cc32)CC1	1.42 µM and 1.64 µM and 3.82 µM	3.02 µM and 3.21 µM and 8.68 µM	1.6	3.63 µM and 20.2 µM and 23.1 µM	1.78	3.26 µM and 17.5 µM and 20.3 µM	1.85 µM and 3.67 µM and 8.47 µM	4.44 µM and 18.1 µM and 21.4 µM	2.43	6.57 µM and 17.3 µM and 21.3 µM	1.57	3.08 µM and 4.34 µM and 3.91 µM	2.31	8.42 µM and 16.8 µM and 17.5 µM	2.13 µM and 2.01 µM and 4.6 µM	4.27 µM and 28.6 µM	3.72	14.3 µM and 25.4 µM and 26.2 µM	1.53	3.06 µM and 7.61 µM and 5.88 µM
NCC(=O)NC(CO)C(=O)O (configuration not stated)	–	> 100 µM	–	> 100 µM	–	> 100 µM	–	> 100 µM	–	> 100 µM	–	> 100 µM	–	> 100 µM	–	> 100 µM	–	> 100 µM	–	> 100 µM
Cc1nc2sc(C(=O)Nc3cccc(Cl)c3C)c(N)c2cc1C(=O)c1ccccc1	1.01 µM	> 50 µM	0.245	> 50 µM	0.22	> 50 µM	0.209 µM	> 50 µM	0.226	> 50 µM	0.246	> 50 µM	0.258	> 50 µM	0.199 µM	> 50 µM	0.375	> 50 µM	0.202	> 17.9 µM
O=C(c1ccncc1)N1CCN(C2=NS(=O)(=O)c3ccccc3N2c2ccccc2)CC1	16.3 µM	37.6 µM	10.9	57.5 µM	14.5	33.3 µM	15.5 µM	57.1 µM	> 100	> 100 µM	7.99	21.6 µM	22.2	> 100 µM	7.79 µM	> 100 µM	8.37	> 100 µM	19	57.8 µM
C/C=C1\C[C@@H]2C(OC)Nc3cc(O)c(OC)cc3C(=O)N2C1 (some centres not stated)	< 0.0178 µM	0.0358 µM and 0.023 µM	–	0.0783 µM and < 0.0265 µM	0.0172	–	0.00703 µM	36.8 µM	0.00733	–	0.00284	0.00948 µM	0.0221	0.404 µM and 0.478 µM	0.00347 µM	2.74 µM	0.0027	0.174 µM and 1.71 µM	0.0075	0.16 µM and < 0.215 µM
COc1cc([N+](=O)[O-])c(OC)cc1-c1nc2n(c1/C(N)=N/C(=N)N)CCS2	> 100 µM	> 100 µM	86.8	> 100 µM	20.8	> 100 µM	> 100 µM	> 100 µM	> 100	> 100 µM	75.5	> 100 µM	> 100	> 100 µM	> 100 µM	> 100 µM	45.8	> 100 µM	> 100	> 100 µM
Cc1ccc2nc(CC(=O)c3ccc4ccccc4c3)c(=O)[nH]c2c1	–	> 100 µM	–	> 100 µM	–	> 100 µM	–	> 100 µM	–	> 100 µM	–	> 100 µM	–	> 100 µM	–	> 100 µM	–	> 100 µM	–	> 100 µM
O=C(Nc1ccc(Cl)cc1F)c1cc(Cl)ccc1O	2.23 µM	8.77 µM	0.253	–	0.431	2.24 µM	0.7 µM	> 22.5 µM	0.519	–	0.279	1.11 µM	1.28	5.64 µM	0.361 µM	> 59.2 µM	0.52	> 27.6 µM	3.2	> 31.2 µM
CC(=O)OC1CC(C)c2c(Cl)ncnc21 (configuration not stated)	> 100 µM	> 100 µM	> 100	> 100 µM	> 100	> 100 µM	> 100 µM	> 100 µM	> 100	> 100 µM	> 100	> 100 µM	> 100	> 100 µM	> 100 µM	> 100 µM	> 100	> 100 µM	> 100	> 100 µM
Cc1cccc2c1NC(=O)C2(c1ccc(O)cc1)c1ccc(O)cc1	0.0706 µM	24.6 µM	< 0.01	–	11.3	25.5 µM	20.8 µM	69.8 µM	0.53	> 100 µM	11.4	35.1 µM	0.0497	> 62 µM	19.1 µM	99.5 µM	19.8	> 100 µM	15.7	46.5 µM
CC(C)NCCCCCNc1cc(O)cc2cccnc12	> 44.2 µM	> 100 µM	4.56	> 100 µM	67.9	> 100 µM	> 100 µM	> 100 µM	> 100	> 100 µM	> 100	> 100 µM	> 100	> 100 µM	> 100 µM	> 100 µM	> 100	> 100 µM	31.6	> 100 µM
O=C1C(Cl)=C(Nc2ccccn2)C(=O)c2ccccc21	17.8 µM	33.7 µM	3.1	10.2 µM	1.95	4.1 µM	2.29 µM	5.16 µM	3.54	> 100 µM	2.1	3.95 µM	2.27	8.35 µM	1.92 µM	5.42 µM	2.74	7.55 µM	26.2	62.5 µM
Cc1csc(-c2ccc3c(c2)COC3(CCCN(C)C)c2ccc(F)cc2)c1 (configuration not stated)	1.79 µM	3.3 µM	1.85	4.62 µM	1.86	3.54 µM	1.8 µM	3.51 µM	1.85	3.51 µM	1.78	3.36 µM	1.81	3.45 µM	2.29 µM	5.18 µM	1.68	3.26 µM	–	–
O=C(Nc1ccc(O)c(NS(=O)(=O)c2ccc(F)cc2)c1)c1ccc(-c2ccccc2)cc1	17.5 µM	45.3 µM	3.07	18.4 µM	5.12	20.7 µM	7.23 µM	22.2 µM	4.36	17.3 µM	7.53	28.1 µM	3.84	16.7 µM	3.68 µM	14.6 µM	6.49	33.2 µM	14.1	30.9 µM
O=[N+]([O-])c1ccc(NN=C2c3ccccc3Cc3ccccc32)c([N+](=O)[O-])c1	–	> 100 µM	–	> 100 µM	–	> 100 µM	–	> 100 µM	–	> 100 µM	–	> 100 µM	–	> 100 µM	–	> 100 µM	–	> 100 µM	–	22.2 µM
O=C(OC(CNc1c(C(=O)c2ccccc2)c(=O)n(Cc2ccccc2)c(=O)n1Cc1ccccc1)CN1CCCCC1)c1ccccc1 (configuration not stated)	12.1 µM	24.4 µM	> 100	> 100 µM	14.9	28.1 µM	35.7 µM	> 100 µM	13.5	26.3 µM	20.7	42.4 µM	13.1	26.4 µM	14.9 µM	31.3 µM	24.1	53.2 µM	–	–
CCNC(=O)c1ccc2c(c1)nc(-c1ccc(Cl)cc1)n2-c1cc(C(C)(C)C)[nH]n1	3.96 µM	26.7 µM	3.99	> 100 µM	3.17	12.3 µM	–	–	3.26	18 µM	2.05	7.61 µM	2.87	48.8 µM	3.35 µM	16.8 µM	3.42	15.4 µM	3.13	9.71 µM

From PubChem BioAssay (NCI)
